# Biological target: T1, nitric oxide synthase (Mus musculus, UniProt P29477)
# T1 construct: The reaction is started by adding 50 μl of cell lysate (prepared as above); endogenous in cells; host or cells: J774A-1 murine macrophage cell line, induced with LPS and IFN-gamma; crude cell lysate
# Test: Screen 1: nitric oxide synthase inhibition, 3H-L-arginine to 3H-L-citrulline conversion, lysate of induced J774A-1 cells
# Type: biochemical
# Conditions: enzyme from IFNg/LPS-induced murine macrophage J774A-1 cell lysate; 1 hour at room temperature; read-out: IC50 (concentration of drug substance which gives 50% enzyme inhibition in the assay)
# Procedure: The activity of compounds of formula (I), or a pharmaceutically acceptable salt thereof, may be screened for nitric oxide synthase inhibiting activity by a procedure based on that of Förstermann et al., Eur. J. Pharm., 1992, 225, 161-165. Nitric oxide synthase converts ^3H-L-arginine into ^3H-L-citrulline which can be separated by cation exchange chromatography and quantified by liquid scintillation counting.
# Enzyme is prepared, after induction, from the cultured murine macrophage cell line J774A-1 (obtained from the laboratories of the Imperial Cancer Research Fund). J774A-1 cells are cultured in Dulbeccos Modified Eagles Medium (DMM) supplemented with 10% foetal bovine serum, 4 mM L-glutamine and antibiotics (100 units/ml penicillin G, […] & […] amphotericin B). Cells are routinely grown in […] flasks is containing 35 ml medium kept at 37° C. and in a humidified atmosphere containing 5% CO2. […]
# Labelled L-citrulline is separated from labelled L-arginine using Dowex AG-50W. […] After allowing the samples to dry the L-citruulline is quantified by scintillation counting.
# In a typical experiment basal activity is 300 dpm per 75 μl sample which is increased to 1900 dpm in the reagent controls. […] Compounds are tested at a range of concentrations and from the inhibitions obtained IC50 values are calculated. […]
structure (smiles),measurement,value
N=C(N)NN [arninoguanidine],IC50,10 µM

# Reference: patent publication US20060040992A1, “Antiinflammatory 3-arylthio-3-thiazolyl-alkylamines” (AstraZeneca AB, priority 2002, published 2006)
